Reference: US20240002127A1 (priority 2020, published 2024)

Legend:
[1] = target: human ACE2 peptidase domain (amino acids 1-615 of human ACE2 with C-terminal His-10 and Avi tags) (human) (UniProt Q9BYF1)
[2] = assay type: in vivo, rats; conditions: rat
Procedure: A single dose PK study of ALC-0315 and […] following intravenous (IV) bolus injection of a nanoparticle formulation in rats was conducted to assess the PK and metabolism of lipid excipients ALC-0315 and ALC-0159.

[3] = assay type: in vitro ADME, mice, rats, monkeys, humans; conditions: mouse, rat, monkey, human
Procedure: In vitro metabolism of ALC-0315 and ALC-0159 was evaluated in blood, liver microsomes, S9 fractions, and hepatocytes from mice, rats, monkeys, and humans. In vivo metabolism was examined in rat plasma, urine, faeces, and liver samples from the PK study. […] ALC-0315 and ALC-0159 are apparently metabolised by hydrolytic metabolism of the ester and amide functionalities, respectively, and this hydrolytic metabolism is observed across the species evaluated.

Chain of UniProt Q9BYF1 (Q9BYF1 18-615 limits assumed): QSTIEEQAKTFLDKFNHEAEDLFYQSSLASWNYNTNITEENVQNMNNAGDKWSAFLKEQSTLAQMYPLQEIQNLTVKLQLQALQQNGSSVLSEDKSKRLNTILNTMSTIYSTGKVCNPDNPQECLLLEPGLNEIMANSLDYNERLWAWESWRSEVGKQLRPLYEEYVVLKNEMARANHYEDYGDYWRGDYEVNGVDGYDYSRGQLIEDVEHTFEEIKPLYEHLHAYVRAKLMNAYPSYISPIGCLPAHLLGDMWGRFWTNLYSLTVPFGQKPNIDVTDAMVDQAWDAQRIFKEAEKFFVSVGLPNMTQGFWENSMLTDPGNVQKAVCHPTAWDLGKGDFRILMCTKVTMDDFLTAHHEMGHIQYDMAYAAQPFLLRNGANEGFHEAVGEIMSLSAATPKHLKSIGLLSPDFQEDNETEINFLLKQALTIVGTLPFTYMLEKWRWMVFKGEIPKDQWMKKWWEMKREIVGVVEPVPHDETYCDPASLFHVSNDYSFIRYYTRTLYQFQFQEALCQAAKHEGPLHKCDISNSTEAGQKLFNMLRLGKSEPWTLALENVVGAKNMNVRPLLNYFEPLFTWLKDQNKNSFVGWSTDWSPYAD

Row | Compound | Kd [1] | fold difference of KD against the reported KD of monomeric RBD [1] | eliminated unchanged in faeces [2] | apparent terminal t½ in plasma and liver ([2]; IV) | drop of concentration in liver ([2]; IV, over 2 weeks) | drop of concentration in plasma ([2]; IV, over 2 weeks) | metabolism in vitro and in vivo [3]
1 | RBD-foldon trimer (trimerised SARS-CoV-2 spike receptor-binding domain fused to T4 fibritin foldon, (other; other documents disagree on this pair) | 5 pM | 1000 fold |  |  |  |  | 
2 | CCCCCCCCC(CCCCCC)C(=O)OCCCCCCN(CCCCO)CCCCCCOC(=O)C(CCCCCC)CCCCCCCC (stereo not shown) [ALC-0315, ((4-hydroxybutyl)azanediyl)bis(hexane-6,1-diyl)bis(2-hexyldecanoate)] |  |  | little to no unchanged material | 140 to 190 h | ~4 fold | approximately 7000 fold | relatively slowly
